Reference: US11326207B2, “Sequencing using non-natural nucleotides” (Ultima Genomics, Inc., priority 2017, dated 2022)
Read-outs that look alike come from different tables or passages of the source.

How the values were obtained:
Bst DNA polymerase = molecular target: T1, Bst DNA polymerase (Geobacillus stearothermophilus, UniProt P52026); assay: Stepwise sequencing with TTP and E-dUTP, context metric (Example 8); assay type: biochemical; settings: 0.05 fraction of dUTP*
T1 sequence (P52026 1-876): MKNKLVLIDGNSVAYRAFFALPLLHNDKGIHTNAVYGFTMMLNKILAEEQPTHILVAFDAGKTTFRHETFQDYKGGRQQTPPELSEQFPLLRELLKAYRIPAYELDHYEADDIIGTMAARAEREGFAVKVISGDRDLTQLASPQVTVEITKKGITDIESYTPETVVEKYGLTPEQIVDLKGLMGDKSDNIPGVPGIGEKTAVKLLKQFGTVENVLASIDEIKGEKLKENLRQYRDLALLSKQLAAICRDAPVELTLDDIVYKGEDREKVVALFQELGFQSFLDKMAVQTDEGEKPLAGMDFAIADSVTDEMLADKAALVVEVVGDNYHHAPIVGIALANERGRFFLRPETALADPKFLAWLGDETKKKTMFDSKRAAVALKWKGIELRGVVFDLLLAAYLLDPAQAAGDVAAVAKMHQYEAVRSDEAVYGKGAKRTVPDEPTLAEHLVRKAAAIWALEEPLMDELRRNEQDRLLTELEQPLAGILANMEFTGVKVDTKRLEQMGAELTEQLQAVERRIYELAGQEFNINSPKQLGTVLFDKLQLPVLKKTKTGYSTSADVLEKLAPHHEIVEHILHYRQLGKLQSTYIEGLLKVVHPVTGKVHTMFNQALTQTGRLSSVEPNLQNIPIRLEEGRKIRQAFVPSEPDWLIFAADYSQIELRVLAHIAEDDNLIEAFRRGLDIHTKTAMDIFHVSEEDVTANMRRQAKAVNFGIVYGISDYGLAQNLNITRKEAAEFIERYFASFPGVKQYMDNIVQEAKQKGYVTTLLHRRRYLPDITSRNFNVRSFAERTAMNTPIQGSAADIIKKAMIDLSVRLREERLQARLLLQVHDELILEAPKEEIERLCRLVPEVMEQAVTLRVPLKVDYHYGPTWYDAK
From the text: A microscope slide surface was modified with polyaminosilane to allow the attachment of 1 micron beads each containing one of three different oligonucleotide templates. To each template was bound an oligonucleotide primer and Bst DNA polymerase. Solutions of mixtures of labeled and unlabeled nucleotide, of one type at a time, were exposed to the surface, followed by a wash solution. The fluorescence of labeled beads was detected and quantitated. The fluorescence label was cleaved by treatment with tris(hydroxypropyl)phosphine (THP) after each step.
Context was measured for each experiment. Context is given by the context metric, C, which is defined as the (maximum-minimum signal)/average signal.

DNA polymerase = settings: for peak height (red fluorescence on the gel): dUTP* only (Fr = 1.0) or dUTP*/named dUTP^0
Description: A gel assay was also performed to examine context-dependent incorporation. […] The primers had different lengths poly-T tails to enable separation on a polyacrylamide gel. […] Excess nucleotides and nucleotide analogs were washed away and the sample was loaded onto a gel.
The red fluorescence on the gel was analyzed with ImageJ. The peak heights for the extension reactions for each primer with Fr=1.0 was measured. […] The ratios of the peak heights for each pair were calculated (“norm.”). […] The metric in this experiment was context, as defined as: C=(Maximum signal−minimum signal)/(average signal).

Bst DNA polymerase v.2.0 = assay: Competition assay: one base extension, capillary electrophoresis and flow cytometry (Example 6); assay type: biochemical
Description: The final concentrations of various nucleotides in the mixtures were 5 micromolar (μM). […] A solution of biotinylated template (2 microliters (μL) of 100 μM) and dye-labeled primer (4 μL of 100 μM) were combined in annealing buffer (40 μL; Tris (10 millimolar (mM)), EDTA (1 mM), NaCl (100 mM)). The resulting solution was heated to 95° C. and allowed to slowly cool to room temperature. […] New England Biolabs) for five minutes. […] Next, a portion of the suspended magnetic beads (10 μL) were removed and placed in a PCR tube. A solution of nucleotides (10 μL) was added to the tube and the tube incubated for 40 seconds (s) at 50° C. The enzyme reaction was stopped with the addition of 5 μL of 50 mM EDTA. The beads were washed with 2×100 μL TET and resuspended in 20 μL TET. […] The eluant of the remaining beads was removed and 40 μL of 95:5 formamide:10 mM EDTA was added to the beads. A portion of the formamide solution (1 μL) was added to 40 μL 95:5 formamide EDTA. The solutions were examined by capillary electrophoresis (CE) on an ABI 3730 instrument and the peaks identified and quantitated by peak height. The experimental protocol is summarized schematically in FIG. 2.

hairpin oligo = assay: Kinetic assay using hairpin oligos (Example 7); assay type: biochemical
Description: A kinetic assay using hairpin oligos was also performed to determine the rate of incorporate of an unnatural nucleotide and a natural nucleotide following the unnatural nucleotide. […] Incorporation of a T or U analog unquenched a fluorescein in the hairpin oligo. Following incorporation of the T or U analog, a mixture of C and A was added, which further unquenched the dye.

With `Cc1cn([C@H]2C[C@H](O)[C@@H](COP(=O)(O)OP(=O)(O)OP(=O)(O)O)O2)c(=O)[nH]c1=O` [TTP, thymidine triphosphate, reference compound] the “C (context metric)” value (Bst DNA polymerase; Oligonucleotide template 1) was 0.86, the “C (context metric)” value (Bst DNA polymerase; Oligonucleotide template 2) was 0.73 and the “C (context metric)” value (Bst DNA polymerase; Oligonucleotide template 3) was 0.71. For the same molecule, the “Norm. (ratio of peak height dUTP*/dUTP^0 to Fr=1.0)” value (DNA polymerase; Peak 1) was 1.1, the “peak height (red fluorescence on the gel)” value (DNA polymerase; Peak 1 (primer)) was 48 and the “Norm. (ratio of peak height dUTP*/dUTP^0 to Fr=1.0)” value (DNA polymerase; Peak 2) was 1.4. The “peak height (red fluorescence on the gel)” value (DNA polymerase; Peak 2 (primer)) was 56, the “Norm. (ratio of peak height dUTP*/dUTP^0 to Fr=1.0)” value (DNA polymerase; Peak 3) was 1.0 and the “peak height (red fluorescence on the gel)” value (DNA polymerase; Peak 3 (primer)) was 25. The “Norm. (ratio of peak height dUTP*/dUTP^0 to Fr=1.0)” value (DNA polymerase; Peak 4) was 1.2, the “peak height (red fluorescence on the gel)” value (DNA polymerase; Peak 4 (primer)) was 38 and the “Norm. (ratio of peak height dUTP*/dUTP^0 to Fr=1.0)” value (DNA polymerase; Peak 5) was 1.7. For the same molecule, the “peak height (red fluorescence on the gel)” value (DNA polymerase; Peak 5 (primer)) was 38, the “context C=(Maximum signal−minimum signal)/(average signal)” value (DNA polymerase; five primers, gel assay with dUTP*) was 0.54 and the “CE product peaks of one base extension in competition with dUTP*” value (Bst DNA polymerase v.2.0; 5 micromolar, 40 s at 50° C.) was “yields only a Pr-T peak”. For the same molecule, the “flow cytometry signal of one base extension in competition with dUTP*” value (Bst DNA polymerase v.2.0; beads before stripping) was “relatively low”, the “incorporation of dCTP and dATP after the dUTP analog” value (hairpin oligo; mixture of C and A added after T or U analog) was “rapid” and the “initial incorporation of dUTP analog” value (hairpin oligo; unquenching of fluorescein in hairpin oligo) was “rapid”.
